Measured values from US20100168228A1, “NOVEL CHEMOTHERAPEUTIC AGENTS AGAINST INFLAMMATION AND CANCER” (RELIANCE LIFE SCIENCES PVT. LTD., priority 2006, published 2010).

Tests used:
TNFα = test: Bioassay of TNFα production by LPS activated RAW 264.7 macrophages using L929 cell line; format: cell-based; conditions: Mus musculus; L929 + ActD + supernatant from LPS + compound (10 μM) treated RAW 264.7 macrophage; crystal violet; mean ± S.D. of triplicate; read-out: PERCENTAGE CELL SURVIVAL ± S.D.
Description: Measurement of TNFα in culture medium or supernatant is performed using immunoassay and bioassay. Bioassay was used for the measurement of bioactive TNFα production in the culture medium.
TNFα secretion into the medium by LPS activated macrophage was assayed using L929 tumorigenic murine cells (ATCC) specifically sensitive to TNFα. L929 cell cytotoxicity assay was performed by a modified method (Sano et al., The Journal of Immunology, 1999, 163: 387-395 The Journal of Immunology, 1999, 163: 387-395) based on that described elsewhere (Flick D A, Gifford G E. J Immunol Methods. 1984 Mar. 30; 68(1-2): 167-175). Briefly, the L929 cells (log phase cells) were seeded into a flat bottom 96 well plates (6×10^4/well) in 100 μl volume of RPMI 1640 containing 2% FCS and incubated overnight at 37° C. in a 5% CO2 incubator. A working dilution of the culture supernatant collected from LPS (200 ng/ml) activated macrophage in a volume of 100 μl per well was first tested to obtain 70-75% cytotoxicity equivalent to […] of recombinant TNFα standard to the TNFα sensitive L929 cell line. After incubation of the L929 cells appropriate fixed dilution of the culture supernatant collected from the compound treated (10 μM) wells, containing the LPS stimulated macrophages in a volume of 100 μl with 2 μg/ml Actinomycin D (Act D) was taken and added to the L929 cells and the cells were incubated at room temperature for 15 min followed by 18 h incubation at 37° C. overnight with 5% CO2. On the next day the medium was removed and the cells were stained with 0.2% (w/v) crystal violet for 10 minutes. The wells were gently rinsed with water, and 33% acetic acid (100 μl/well) was added to extract the retained crystal violet. The absorbance at 570 nm was finally measured.
Tumor necrosis factor-α can cause direct cytotoxicity to the lung fibroblast cell line (L929). Bioassay of TNF α is designated on the basis of this cytotoxicity of TNF α, which can be used for the identification of murine TNF α activity in tissue culture supernatants. Culture supernatant collected from the synthetic molecules treated well containing LPS stimulated macrophage modulated the extent of cytotoxicity to the L929 cells (see Table 1).

RAW 264.7 cells = test: Nitrite quantification (Griess) in LPS stimulated macrophages; format: cell-based, mouse; conditions: RAW 264.7 + LPS (200 ng/ml) + 10 μM compound, 24 h; LPS + DMSO control 14.560, basal 0.782
Description: NO2^− accumulation was used as an indicator of Nitric Oxide (NO) production in the medium as described previously (Green et al., 1982 Anal Biochem 126, 131-138). […] The isolated supernatants were mixed with an equal volume of Griess reagent (1% sulfanilamide, 0.1% naphthylenediamine dihydrochloride, and 2% phosphoric acid) and incubated at room temperature for 15 min. NaNO2 was used to generate a standard curve, and nitrite production was determined by measuring the optical density at 540 nm.
To estimate the anti-inflammatory effects of all the synthetic molecules listed in this study, we measured the accumulation of nitrite, the stable metabolite of NO, in the culture media using Griess reagent.
To investigate the effect of CAMVE on NO production, we measured the accumulation of nitrite, the stable metabolite of NO, in the culture media using Griess reagent. To investigate the effect of CAMVE on NO production, Raw 264.7 cells, pretreated with indicated concentrations of CAMVE for 1 h were incubated with LPS (250 ng/ml) for 24 h.

Q: With COC(=O)/C=C/c1ccc(OC(=O)/C=C/c2ccc(O)cc2)c(OC)c1 [compound 18, 2-methoxy-4-[(1E)-3-methoxy-3-oxoprop-1-en-1-yl]phenyl (2E)-3-(4-hydroxyphenyl)acrylate] as the molecule, how does the viability at 10 µM (TNFα) read?
A: 50.4 ± 1.57%

Q: What about the “CONCENTRATION OF NITRITE μM ± SD” value (RAW 264.7 cells) of the same molecule?
A: 7.960 ± 0.437 µM

Q: What does the source list for C/C=C/c1ccc(OC(=O)/C=C/c2ccc(O)c(O)c2)c(OC)c1 [compound 7, 2-methoxy-4-[(1E)-prop-1-en-1-yl]phenyl(2E)-3-(3,4-dihydroxyphenyl)acrylate]?
A: viability at 10 µM (TNFα): 65.3 ± 1.11%; CONCENTRATION OF NITRITE μM ± SD (RAW 264.7 cells): 3.760 ± 0.546 µM

Q: For C/C=C/c1ccc(OC(=O)/C=C/c2ccc(O)cc2)c(OC)c1 [compound 23, 2-methoxy-4-[(1E)-prop-1-en-1-yl]phenyl (2E)-3-(4-hydroxyphenyl)acrylate], which viability at 10 µM (TNFα) is on record?
A: 51.2 ± 1.55%

Q: What about the “CONCENTRATION OF NITRITE μM ± SD” value (RAW 264.7 cells) of the same molecule?
A: 8.338 ± 0.204 µM

Q: How did the viability at 10 µM (TNFα) turn out when C/C=C/c1ccc(OC(=O)c2ccc(O)c(OC)c2)c(OC)c1 [compound 14, 2-Methoxy-4-[(1E)-prop-1en-1-yl]phenyl4-hydroxy-3-methoxy benzoate] was run?
A: 51 ± 1.91%

Q: What about the “CONCENTRATION OF NITRITE μM ± SD” value (RAW 264.7 cells) of the same molecule?
A: 8.382 ± 0.278 µM

Q: What does the source list for COC(=O)c1ccccc1OC(=O)/C=C/c1ccc(O)c(O)c1 [compound 3, Methyl 2-{[(2E)-3-(3,4-dihydroxyphenyl)prop-2-enoyl]oxy}benzoate]?
A: viability at 10 µM (TNFα): 67 ± 2.3%; CONCENTRATION OF NITRITE μM ± SD (RAW 264.7 cells): 3.022 ± 0.300 µM

Q: What does the source list for C/C=C/c1cc(OC)c2c(c1)[C@@H](C)[C@H](c1ccc(OC(=O)c3ccc(O)c(OC)c3)c(OC)c1)O2 (racemic) [compound 16, (±)-2β-[4-O-(3-methoxy-4-hydroxybenzoyl)-3-methoxyphenyl]-3α-methyl-7-methoxy-5-[(E)-1-propenyl]-2,3-dihydrobenzofuran]?
A: viability at 10 µM (TNFα): 49 ± 1.99%; CONCENTRATION OF NITRITE μM ± SD (RAW 264.7 cells): 8.449 ± 0.234 µM

Q: COC(=O)c1ccccc1OC(=O)/C=C/c1ccc(O)cc1 [compound 20, methyl 2-{[(2E)-3-(4-hydroxyphenyl)prop-2-enoyl]oxy}benzoate] was tested. Which viability at 10 µM (TNFα) did it give?
A: 51.9%

Q: What about the “CONCENTRATION OF NITRITE μM ± SD” value (RAW 264.7 cells) of the same molecule?
A: 8.493 ± 0.267 µM

Q: Which viability at 10 µM (TNFα) does the source give for COC(=O)c1ccc(OC(=O)/C=C/c2ccc(O)cc2)c(OC)c1 [compound 17, methyl 4-{[(2E)-3-(4-hydroxyphenyl)prop-2-enoyl]oxy}-3-methoxy benzoate] here?
A: 51.9 ± 1.43%

Q: And the “CONCENTRATION OF NITRITE μM ± SD” value (RAW 264.7 cells)?
A: 8.404 ± 0.315 µM

Q: What does the source list for COC(=O)/C=C/c1cc(OC)c2c(c1)[C@@H](C(=O)OC)[C@H](c1ccc(OC(=O)c3ccc(O)c(OC)c3)c(OC)c1)O2 [compound 12, Methyl(E)-3-[2β-{4-O-(3-methoxy-4-hydroxyphenylcarbonyl)-3-methoxyphenyl}-7-methoxy-3α-methoxycarbonyl-2,3-dihydro-1-benzofuran-5-yl]prop-2-enoate]?
A: viability at 10 µM (TNFα): 51.3 ± 1.21%; CONCENTRATION OF NITRITE μM ± SD (RAW 264.7 cells): 9.582 ± 0.482 µM

Q: Which results are given for C/C=C/c1cc(OC)c2c(c1)[C@@H](C)[C@H](c1ccc(OC(=O)/C=C/c3ccc(O)cc3)c(OC)c1)O2 (racemic) [compound 29, (±)-2β-[4-O-(4-hydroxycinnamoyl)-3-methoxyphenyl]-3α-methyl-7-methoxy-5-[(E)-1-propenyl]-2,3-dihydrobenzofuran]?
A: viability at 10 µM (TNFα): 50.6 ± 1.49%; CONCENTRATION OF NITRITE μM ± SD (RAW 264.7 cells): 8.382 ± 0.454 µM

Q: Which results are given for C=CCc1ccc(OC(=O)/C=C/c2ccc(O)cc2)c(OC)c1 [compound 21, 4-allyl-2-methoxyphenyl (2E)-3-(4-hydroxyophenyl)acrylate]?
A: viability at 10 µM (TNFα): 52.3 ± 1.25%; CONCENTRATION OF NITRITE μM ± SD (RAW 264.7 cells): 8.293 ± 0.371 µM

Q: C/C=C/c1cc(OC)c2c(c1)[C@@H](C)[C@H](c1ccc(OC(=O)/C=C/c3ccc(O)c(O)c3)c(OC)c1)O2 (racemic) [compound 5, (±)-2β-[4-O-(3,4,-dihydroxycinnamoyl)-3-methoxyphenyl]-3α-methyl-7-methoxy-5-[(E)-1-propenyl]-2,3 dihydrobenzofuran] was tested. Which viability at 10 µM (TNFα) did it give?
A: 67.8 ± 0.866%

Q: And the “CONCENTRATION OF NITRITE μM ± SD” value (RAW 264.7 cells)?
A: 3.449 ± 0.315 µM
